According to article PMC8705394, “Acquired Drug Resistance Enhances Imidazoquinoline Efflux by P-Glycoprotein” (Pharmaceuticals, 2021):

Experiments:
[1] = biological target: T1, P-glycoprotein 1 (P-gp, hMDR1) (Homo sapiens, UniProt P08183); experiment: vanadate-sensitive ATPase activation in P-gp membrane vesicles (PREDEASY kit); supported by Rh123 competition in MDR cells
T1 construct: gene ABCB1

[2] = biological target: T1, P-glycoprotein 1 (P-gp, hMDR1); experiment: biochemical

T1 sequence (P08183 whole entry): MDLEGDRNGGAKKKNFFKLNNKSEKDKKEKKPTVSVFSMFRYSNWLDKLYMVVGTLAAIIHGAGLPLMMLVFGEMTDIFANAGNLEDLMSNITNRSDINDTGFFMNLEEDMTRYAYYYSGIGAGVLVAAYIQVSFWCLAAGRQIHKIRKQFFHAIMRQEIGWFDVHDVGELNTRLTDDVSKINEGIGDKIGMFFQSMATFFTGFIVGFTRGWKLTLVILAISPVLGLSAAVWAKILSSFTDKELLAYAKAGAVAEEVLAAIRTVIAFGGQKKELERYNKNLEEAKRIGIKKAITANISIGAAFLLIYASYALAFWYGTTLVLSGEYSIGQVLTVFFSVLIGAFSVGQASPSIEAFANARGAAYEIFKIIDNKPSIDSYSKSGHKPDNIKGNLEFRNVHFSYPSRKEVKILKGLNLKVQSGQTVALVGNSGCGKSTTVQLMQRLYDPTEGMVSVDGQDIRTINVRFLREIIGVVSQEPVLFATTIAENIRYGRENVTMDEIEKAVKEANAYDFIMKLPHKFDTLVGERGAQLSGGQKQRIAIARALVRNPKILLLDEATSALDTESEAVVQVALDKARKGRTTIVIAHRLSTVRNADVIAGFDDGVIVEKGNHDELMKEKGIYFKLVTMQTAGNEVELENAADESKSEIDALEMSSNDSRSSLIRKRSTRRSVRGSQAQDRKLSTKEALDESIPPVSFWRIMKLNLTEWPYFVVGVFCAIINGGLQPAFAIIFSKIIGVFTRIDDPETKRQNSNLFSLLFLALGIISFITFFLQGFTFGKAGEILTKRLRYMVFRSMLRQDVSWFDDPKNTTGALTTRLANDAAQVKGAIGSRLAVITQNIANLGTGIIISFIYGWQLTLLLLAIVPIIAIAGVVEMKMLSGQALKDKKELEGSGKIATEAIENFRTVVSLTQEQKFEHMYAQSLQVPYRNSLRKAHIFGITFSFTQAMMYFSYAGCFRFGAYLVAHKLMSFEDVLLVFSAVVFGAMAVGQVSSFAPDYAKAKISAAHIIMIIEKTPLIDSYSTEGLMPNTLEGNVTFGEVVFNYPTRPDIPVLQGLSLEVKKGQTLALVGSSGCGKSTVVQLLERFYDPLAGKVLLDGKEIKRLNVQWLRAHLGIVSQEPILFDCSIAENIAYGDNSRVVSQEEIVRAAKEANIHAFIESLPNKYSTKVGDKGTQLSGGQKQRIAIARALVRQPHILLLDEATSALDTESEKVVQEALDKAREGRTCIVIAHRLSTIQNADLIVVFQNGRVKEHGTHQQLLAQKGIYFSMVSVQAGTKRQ

Row | Kd [2] [µM] | SMILES | Kd [1] [µM]
1 | – | CC(C)Cn1cnc2c(N)nc3ccccc3c21 [IMQ, Imiquimod] | 7.66
2 | 24.4 | CCOCc1nc2c(N)nc3ccccc3c2n1CC(C)(C)O [RSQ, Resiquimod] | –
